Legend:
RM1-BM-Luc cells = assay: Combination and survival study, RM1-BM-Luc syngeneic model; assay type: in vivo, C57BL/6 mice; conditions: RM1-BM-Luc in C57BL/6, day 14, IVMT-Rx-4 30 mg/kg and/or Docetaxel 5 mg/kg 3X a week for two weeks
Experimental: (§1) Both syngeneic (C57BL/6) and athymic nude mice were used for survival studies. Tumor cells (RM1-BM-Luc or PC3-ML-Luc) were injected intracardially in a cohort of 40 animals. […] In the combination groups, both regimens were administered 3X a week for two-weeks at the same dose as a single therapy. Animals were imaged periodically and maintained until euthanization was required.
(§2) Fig. 5. […] A and B) RM1-BM-Luc (A) or PC3-ML-Luc (B) cells were implanted I.C. in C57BL/6 and athymic nude mice, respectively. […] BLI images were used to detect bone metastases (the percentage incidence of bone metastases in animals was calculated at a single time point, day 14). Values are presented at the bottom panel of the respective group (red, number of animals positive for metastasis and black, total number of experimental animals). C and D) Animals were kept until mandated euthanasia based on IACUC guidelines, considered as disease associated death. The Kaplan–Meier survival curves were generated using GraphPad in both models as described in (A) and (B), respectively. E and F) Log-rank test was performed and values between different experimental groups are presented.

PC3-ML-Luc cells = assay: Combination and survival study, PC3-ML-Luc model; assay type: in vivo; conditions: PC3-ML-Luc in athymic nude mice, day 14, IVMT-Rx-4 30 mg/kg and/or Docetaxel 5 mg/kg 3X a week for two weeks
Experimental: as §1, §2

[1] = tested on: HS5, RWPE-1, C4–2B, PC3-ML, ARCaP-M and RM1-BM cells; assay: Colony formation (clonal) assay; assay type: cell-based, human and murine; conditions: 50 μM, six repeated doses over a two-week period, tumor and non-tumor cells
Experimental: 200 cells/well were seeded in triplicate in 6-well plates. […] The colonies were fixed with ice-cold Methanol and stained with 0.5% crystal violet and counted.
Fig. 1. Primary characterization of IVMT-Rx-4. A) Chemical structure (upper panel) and synthesis scheme (lower panel). […] All proteins were extracted, and Western blotting was performed immediately after heating. Quantifications were obtained in the absence (control) or presence of IVMT-Rx-4 and values are presented as percentage of RT (room temperature) normalized for the experimental groups (control, IVMT-Rx-4). SOD (Superoxide dismutase) was used as an endogenous control. […] Colonies were stained with crystal violet and counted (n = 3 ± SD; ns: non-significant). […] Invaded cells were stained with crystal violet. Top panel: representative photograph of invaded cells under different experimental settings. Bottom panel: graphical representation of number of invaded cells/field for different cell lines (n = 3 ± SD; * p < 0.05).

[2] = Thermodynamic solubility in PBS, pH 7.4; assay type: physicochemical
[3] = Log D by shake flask (pH 7.4); assay type: physicochemical; conditions: pH 7.4, octanol/phosphate buffer
Experimental: Sodium Phosphate buffer pH 7.4 (10 mM) was used as the aqueous phase and octanol was used as the organic phase. […] The sealed plate was incubated at 25 °C with continuous agitation at 2000 rpm for 2 hrs. Samples were then separated by centrifugation, diluted 100-fold with a mixture of H20 and acetonitrile containing internal standard, and analyzed via LC-MS/MS. The Log D value was calculated using the following equation: […]

Caco-2 cell monolayer = assay: Caco-2 bidirectional permeability; assay type: in vitro ADME
Experimental: To prepare the Caco-2 cell monolayer, 50 µL and 25 µL of cell culture medium (Dulbecco’s modified Eagle’s medium, DMEM) were added to each well of the inserts and reservoir, respectively, within a 96-well HTS Transwell plate (Corning, NY, USA). The plate was incubated at 37 °C and 5% CO2 for 1 hr. prior to cell seeding. Caco-2 cells were then diluted to 6.86 x 10^5 cells/mL using culture medium and 50 µL of cell suspension were seeded into the plate, and incubated at 37 °C, 5% CO2, and 95% relative humidity for 14-18 days. During this time, the cells were cultivated with media replacements occurring every other day. Cells were allowed to grow and differentiate and the integrity of the Caco-2 cell monolayer was evaluated by measurement of transepithelial electrical resistance (TEER) using a Millicell Epithelial Volt-Ohm measuring system (Millipore, USA).
Prior to the assay, the established monolayer was washed twice with pre-warmed HBSS and incubated at 37 °C for 30 minutes. A bidirectional permeability assay was performed simultaneously using two different plates as described previously (Supplementary Reference: Cui Y, Desevaux C, Truebenbach I, Sieger P, Klinder K, Long A, Sauer A. A Bidirectional Permeability Assay for beyond Rule of 5 Compounds. Pharmaceutics. 2021 Jul 27;13(8):1146. doi: 10.3390/pharmaceutics13081146. PMID: 34452112; PMCID: PMC8400635.): one assessed permeability from the apical to the basolateral side, while the other assessed from the basolateral to the apical side. […] For apical to basolateral permeability, 108 µL of working solution was loaded into the apical compartment, whereas 308 µL of working solution was added to the basolateral compartment for basolateral to apical permeability. The samples collected from donor and receiver compartment were mixed with 72 µL transport buffer and 240 µL of acetonitrile containing internal standard (IS, 100 nM alprazolam, 200 nM Caffeine and 100 nM tolbutamide), centrifuged at 1000 rpm for 10 minutes. […] In doing so, the following equations were used: […]
Where, Papp is apparent permeability (cm/s x 10^-6), dQ/dt is the rate of drug transport (pmol/second), A is the surface area of the membrane (cm^2), and D0 is the initial donor concentration (nM; pmol/cm^3). (B-A) indicates basolateral to apical permeation, where (A-B) indicates apical to basolateral.

[4] = Stability in liver microsomes with NADPH and UDPGA; assay type: in vitro ADME; conditions: all species (human, monkey, dog, rat, mouse), NADPH and UDPGA added
Experimental: Test samples were incubated at 37 °C, and Verapamil was used as a positive control. Samples were drawn from the incubation solution at different timepoints, centrifuged, then diluted with ultra-pure H20 and analyzed via LC-MS/MS. The natural logarithm of the remaining parent drug at each timepoint was plotted against incubation time, and the following equation was used to calculate the in vitro half-life:
in vitro t1/2 = -(0.693/k), where k is the rate constant.

CYP3A4 = target: T1, CYP3A4 (Homo sapiens, UniProt P08684); assay: Time dependent CYP inhibition (TDI); assay type: in vitro ADME; conditions: human liver microsomes, with or without NADPH
T1 construct: in the presence of human liver microsomes; from tissue; host or cells: human liver microsomes
T1 sequence (P08684 whole entry): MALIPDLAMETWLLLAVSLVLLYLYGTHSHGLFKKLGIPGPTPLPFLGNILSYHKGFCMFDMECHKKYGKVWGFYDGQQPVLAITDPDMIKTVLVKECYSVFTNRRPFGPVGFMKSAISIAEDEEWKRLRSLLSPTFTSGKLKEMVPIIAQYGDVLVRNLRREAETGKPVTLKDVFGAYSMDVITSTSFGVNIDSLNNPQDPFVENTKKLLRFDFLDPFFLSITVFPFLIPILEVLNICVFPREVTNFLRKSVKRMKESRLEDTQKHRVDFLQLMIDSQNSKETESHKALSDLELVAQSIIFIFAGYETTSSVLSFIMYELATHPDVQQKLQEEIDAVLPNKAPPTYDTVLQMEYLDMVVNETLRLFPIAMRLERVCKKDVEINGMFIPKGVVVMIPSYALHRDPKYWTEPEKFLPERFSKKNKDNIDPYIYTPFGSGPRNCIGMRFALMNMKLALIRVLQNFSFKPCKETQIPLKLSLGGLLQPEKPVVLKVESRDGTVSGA
Experimental: Then, the specific CYP3A4 substrate was added, and aliquots were collected at various time points. Samples were then diluted with ultra-pure water and analyzed by LC-MS/MS. Area ratio and remaining Activity (%) were calculated as above and IC50 values was calculated using Excel XLfit 5.3.1.3.

PXR = target: T2, PXR (Homo sapiens, UniProt O75469); assay: PXR assay using DPX2 cells; assay type: cell-based
T2 construct: expressed in transfected cells; host or cells: DPX2 cells
T2 sequence (O75469 1-434): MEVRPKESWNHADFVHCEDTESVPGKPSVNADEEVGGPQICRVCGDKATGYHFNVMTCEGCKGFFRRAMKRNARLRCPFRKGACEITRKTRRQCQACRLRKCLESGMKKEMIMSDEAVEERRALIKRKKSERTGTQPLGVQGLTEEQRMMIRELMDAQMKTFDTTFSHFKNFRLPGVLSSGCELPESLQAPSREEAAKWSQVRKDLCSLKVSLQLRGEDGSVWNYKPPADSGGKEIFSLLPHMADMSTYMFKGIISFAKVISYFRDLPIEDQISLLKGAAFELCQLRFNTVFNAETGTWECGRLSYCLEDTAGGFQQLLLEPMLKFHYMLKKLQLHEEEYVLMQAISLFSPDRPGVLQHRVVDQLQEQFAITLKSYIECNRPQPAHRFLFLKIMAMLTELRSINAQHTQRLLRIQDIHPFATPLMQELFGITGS
Experimental: DPX2 cells were initially cultured in T-75 flasks and maintained at 37°C in a humidified incubator with 5% CO2 and 95% relative humidity. Cells were allowed to reach 70-80% confluence prior to subculture. Next, cells were transferred to a culture plate and incubated for an additional 24 hours to allow for attachment and recovery prior to treatment. […] Cell viability and luciferase activity were measured using the CellTiter-Fluor™ Cell Viability Assay and One-GloTM Luciferase Assay System, respectively. Luciferase activity was normalized to viable number and fold activation of PXR was calculated using the following equation: […]

[5] = tested on: Salmonella typhimurium TA98 & TA100; assay: Mini-Ames assay; assay type: cell-based
Experimental: The mini-AMES assay was performed in Pharmaron, Inc. following the standard protocol as developed by the in-house scientist. […] The assay was conducted in the presence or absence of the S9 mix along with concurrent negative/solvent control and positive controls.

SMILES: CC(=O)O[C@@]12CO[C@@H]1C[C@H](O)[C@@]1(C)C(=O)[C@H](O)C3=C(C)[C@@H](OC(=O)[C@H](O)[C@@H](NC(=O)OC(C)(C)C)c4ccccc4)C[C@@](O)([C@@H](OC(=O)c4ccccc4)[C@H]21)C3(C)C [Docetaxel, reference compound]
- bone metastases, Incident/Total number tested (RM1-BM-Luc cells): 5/8
- bone metastases, Incident/Total number tested (PC3-ML-Luc cells): 3/8

SMILES: Cc1cc(NC(=O)c2nc3nc4c(c(=O)n3[nH]2)CCC4)c(C)cc1NC(=O)CCc1nnc(-c2ccccc2)o1 [PDZ1i, reference compound]
- cell proliferation (colony formation) [1]: did not inhibit cell proliferation
- Thermodynamic solubility in PBS, pH 7.4 [2]: 10 mg/ML
- Log D by shake flask (pH 7.4) [3]: 0.5
- Caco-2 Efflux ratio (Caco-2 cell monolayer; B-A/A-B): 300
- Caco-2 Bidirectional A-B (Caco-2 cell monolayer; apical to basolateral, 10 µM): 0.04 ×10⁻⁶ cm/s
- Caco-2 Bidirectional B-A (Caco-2 cell monolayer; basolateral to apical, 10 µM): 11.5 ×10⁻⁶ cm/s
- t½ in liver microsomes [4]: Minimal degradation: > 4 hr t½ in all species
- Time-dependent inhibition (TDI), CYP3A4 (CYP3A4): No TDI
- PXR assay (PXR): No induction
- Mini-Ames Assay (2-strain option: TA98 & TA100) [5]: Negative

Source: PMC13401508 (Pharmacological research, 2026)
